Laboratory results as given in patent publication US9034921B2, “Diphenylmethane derivatives as SGLT2 inhibitors” (GREEN CROSS CORPORATION, priority 2011, dated 2015).

Biological target: human SGLT2 (Homo sapiens (Human), UniProt P31639)
Test: Inhibitory effects on human SGLT2 activities (14C-AMG uptake, sodium-dependent glucose transport assay)
Format: cell-based
Details: CHO cells stably expressing hSGLT2, 37° C., 2 h, single determinations
Method in brief: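 CHO cells stably expressing hSGLT2 were preincubated 10 min at 37 °C in choline (Na+-free) buffer, then exposed 2 h at 37 °C to compound in Na+ uptake buffer with 8 μM 14C-AMG and 1 mM unlabeled AMG. Radioactivity was scintillation counted; IC50 came from nonlinear regression.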

Chain of human SGLT2 (P31639 whole entry): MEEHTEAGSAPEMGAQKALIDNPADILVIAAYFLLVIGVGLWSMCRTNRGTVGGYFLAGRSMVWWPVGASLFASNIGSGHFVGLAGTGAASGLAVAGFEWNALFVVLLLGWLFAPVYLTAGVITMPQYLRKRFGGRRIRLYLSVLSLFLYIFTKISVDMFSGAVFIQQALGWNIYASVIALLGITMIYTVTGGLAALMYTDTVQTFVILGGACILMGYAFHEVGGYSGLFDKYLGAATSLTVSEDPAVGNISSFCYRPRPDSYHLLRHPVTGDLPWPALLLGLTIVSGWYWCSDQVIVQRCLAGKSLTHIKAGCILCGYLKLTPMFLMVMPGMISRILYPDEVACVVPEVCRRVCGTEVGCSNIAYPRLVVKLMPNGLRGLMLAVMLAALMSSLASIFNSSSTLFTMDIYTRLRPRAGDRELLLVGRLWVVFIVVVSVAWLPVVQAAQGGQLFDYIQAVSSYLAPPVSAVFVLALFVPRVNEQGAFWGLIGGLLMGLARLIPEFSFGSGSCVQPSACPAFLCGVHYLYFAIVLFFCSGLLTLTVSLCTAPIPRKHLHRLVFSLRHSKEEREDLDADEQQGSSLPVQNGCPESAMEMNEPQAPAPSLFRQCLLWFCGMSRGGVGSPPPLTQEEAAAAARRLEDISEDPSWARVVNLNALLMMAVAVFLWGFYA

IC50 [nM]	Structure (SMILES)
9.62	Cc1ccc([C@@H]2O[C@H](CO)[C@@H](O)[C@H](O)[C@H]2O)cc1Cc1ccc2c(c1)OCCCO2 [Example E030, (2S,3R,4R,5S,6R)-2-(3-((3,4-Dihydro-2H-benzo[b][1,4]dioxepin-7-yl)methyl)-4-methylphenyl)-6-(hydroxymethyl)tetrahydro-2H-pyran-3,4,5-triol]
1.85	OC[C@H]1O[C@@H](c2ccc(Cl)c(Cc3ccc4ncccc4c3)c2)[C@H](O)[C@@H](O)[C@@H]1O [Example E025, (2S,3R,4R,5S,6R)-2-(4-Chloro-3-(quinolin-6-ylmethyl)phenyl)-6-(hydroxymethyl)tetrahydro-2H-pyran-3,4,5-triol]
0.718	CCc1ccc(Cc2cc([C@@H]3O[C@H](CO)[C@@H](O)[C@H](O)[C@H]3O)c3c(c2C(F)F)CCC3)cc1 [Example E239, (2S,3R,4R,5S,6R)-2-(7-(Difluoromethyl)-6-(4-ethylbenzyl)-2,3-dihydro-1H-inden-4-yl)-6-(hydroxymethyl)tetrahydro-2H-pyran-3,4,5-triol]
9.63	CCc1ccc(Cc2cc([C@@H]3O[C@H](CO)[C@@H](O)[C@H](O)[C@H]3O)cc(-c3ccccc3)c2C)cc1 [Example E076]
2.82	CNc1ccc(Cc2cc([C@@H]3O[C@H](CO)[C@@H](O)[C@H](O)[C@H]3O)c3c(c2Cl)OCC3)cc1 [Example E141, (2S,3R,4R,5S,6R)-2-(7-Chloro-6-(4-(methylamino)benzyl)-2,3-dihydrobenzofuran-4-yl)-6-(hydroxymethyl)tetrahydro-2H-pyran-3,4,5-triol 2,2,2-trifluoroacetate]
1.09	COc1ccc(Cc2cc([C@@H]3O[C@H](CO)[C@@H](O)[C@H](O)[C@H]3O)c3c(c2Cl)CC(C)S3)cc1 (stereo partly drawn) [Example E142, (2S,3R,4R,5S,6R)-2-(4-Chloro-5-(4-methoxybenzyl)-2-methyl-2,3-dihydrobenzo[b]thiophen-7-yl)-6-(hydroxymethyl)tetrahydro-2H-pyran-3,4,5-triol]
1.82	CCOc1ccc(Cc2cc([C@@H]3O[C@H](CO)[C@@H](O)[C@H](O)[C@H]3O)c3c(c2Cl)OCC3(C)C)cc1 [Example E225, (2S,3R,4R,5S,6R)-2-(7-Chloro-6-(4-ethoxybenzyl)-3,3-dimethyl-2,3-dihydrobenzofuran-4-yl)-6-(hydroxymethyl)-tetrahydro-2H-pyran-3,4,5-triol]
4.38	OC[C@H]1O[C@@H](c2ccc(Cl)c(Cc3ccc4c(c3)OCCCO4)c2)[C@H](O)[C@@H](O)[C@@H]1O [Example E029, (2S,3R,4R,5S,6R)-2-(4-Chloro-3-((3,4-dihydro-2H-benzo[b][1,4]dioxepin-7-yl)methyl)phenyl)-6-(hydroxymethyl)tetrahydro-2H-pyran-3,4,5-triol]
3.75	COc1ccc(Cc2cc([C@@H]3O[C@H](CO)[C@@H](O)[C@H](O)[C@H]3O)c3c(c2Cl)OCC3)s1 [Example E207, (2S,3R,4R,5S,6R)-2-(7-Chloro-6-((5-methoxythiophen-2-yl)methyl)-2,3-dihydrobenzofuran-4-yl)-6-(hydroxymethyl)tetrahydro-2H-pyran-3,4,5-triol]
3.56	COc1ccc(Cc2cc([C@@H]3O[C@H](CO)[C@@H](O)[C@H](O)[C@H]3O)c3c(c2Cl)C(O)CO3)cc1 (stereo partly drawn) [Example E196, (2S,3R,4R,5S,6R)-2-(4-Chloro-3-hydroxy-5-(4-methoxybenzyl)-2,3-dihydrobenzofuran-7-yl)-6-(hydroxymethyl)tetrahydro-2H-pyran-3,4,5-triol]
3.67	OC[C@H]1O[C@@H](c2ccc(Cl)c(Cc3ccc4c(c3)SCO4)c2)[C@H](O)[C@@H](O)[C@@H]1O [Example E066, (2S,3R,4R,5S,6R)-2-(3-(Benzo[d][1,3]oxathiol-5-ylmethyl)-4-chlorophenyl)-6-(hydroxymethyl)-tetrahydro-2H-pyran-3,4,5-triol]
5.4	CCOc1ccc(Cc2cc([C@@H]3O[C@H]([S+](C)[O-])[C@@H](O)[C@H](O)[C@H]3O)c3c(c2Cl)CC(C)O3)cc1 (stereo partly drawn) [Example E147, (2S,3R,4R,5S,6R)-2-(4-Chloro-5-(4-ethoxybenzyl)-2-methyl-2,3-dihydrobenzofuran-7-yl)-6-((S)-methylsulfinyl)tetrahydro-2H-pyran-3,4,5-triol]
1.09	OC[C@H]1O[C@@H](c2cc(Cc3ccc(C4CC4)cc3)c(Cl)c3c2OCC3)[C@H](O)[C@@H](O)[C@@H]1O [Example E120, (2S,3R,4R,5S,6R)-2-(4-Chloro-5-(4-cyclopropylbenzyl)-2,3-dihydrobenzofuran-7-yl)-6-(hydroxymethyl)tetrahydro-2H-pyran-3,4,5-triol]
9.47	OC[C@H]1O[C@@H](c2ccc(Cl)c(Cc3ccc4c(c3)COCO4)c2)[C@H](O)[C@@H](O)[C@@H]1O [Example E068, (2S,3R,4R,5S,6R)-2-(3-((4H-Benzo[d][1,3]dioxin-6-yl)methyl)-4-chlorophenyl)-6-(hydroxymethyl)-tetrahydro-2H-pyran-3,4,5-triol]
2.62	COc1cc(Cl)c(Cc2ccc3c(c2)OCCO3)cc1[C@@H]1S[C@H](CO)[C@@H](O)[C@H](O)[C@H]1O [Example E048, (2S,3R,4R,5S,6R)-2-(4-Chloro-5-((2,3-dihydrobenzo[b][1,4]dioxin-6-yl)methyl)-2-methoxyphenyl)-6-(hydroxymethyl)tetrahydro-2H-thiopyran-3,4,5-triol]
0.574	C=C(C)c1ccc(Cc2cc([C@@H]3O[C@H](CO)[C@@H](O)[C@H](O)[C@H]3O)c3c(c2Cl)OCC3)cc1 [Example E180, (2S,3R,4R,5S,6R)-2-(7-Chloro-6-(4-(prop-1-en-2-yl)benzyl)-2,3-dihydrobenzofuran-4-yl)-6-(hydroxymethyl)tetrahydro-2H-pyran-3,4,5-triol]
1.78	COc1ccc(Cc2cc([C@@H]3O[C@H](CO)[C@@H](O)[C@H](O)[C@H]3O)c3c(c2Cl)OC(C)C3)cc1 (stereo partly drawn) [Example E130, (2S,3R,4R,5S,6R)-2-(7-Chloro-6-(4-methoxybenzyl)-2-methyl-2,3-dihydrobenzofuran-4-yl)-6-(hydroxymethyl)tetrahydro-2H-pyran-3,4,5-triol]
1.72	Cn1ncc2cc(Cc3cc([C@@H]4O[C@H](CO)[C@@H](O)[C@H](O)[C@H]4O)ccc3Cl)ccc21 [Example E035, (2S,3R,4R,5S,6R)-2-(4-Chloro-3-((1-methyl-1H-indazol-5-yl)methyl)phenyl)-6-(hydroxymethyl)tetrahydro-2H-pyran-3,4,5-triol]
3.84	CCOc1ccc(Cc2cc([C@@H]3O[C@H](CO)[C@@H](O)[C@H](O)[C@H]3O)cc(-c3ccccc3)c2C)cc1 [Example E077]
1.28	CCOc1ccc(Cc2cc([C@@H]3O[C@H](CO)[C@@H](O)[C@H](O)[C@H]3O)c3c(c2Cl)OCCC3)cc1 [Example E157, (2S,3R,4R,5S,6R)-2-(8-Chloro-7-(4-ethoxybenzyl)chroman-5-yl)-6-(hydroxymethyl)tetrahydro-2H-pyran-3,4,5-triol]
1.22	COc1ccc(Cc2cc([C@@H]3O[C@H](CO)[C@@H](O)[C@H](O)[C@H]3O)c3c(c2Cl)C(C)CO3)cc1 (stereo partly drawn) [Example E216, (2S,3R,4R,5S,6R)-2-(4-Chloro-5-(4-methoxybenzyl)-3-methyl-2,3-dihydrobenzofuran-7-yl)-6-(hydroxymethyl)tetrahydro-2H-pyran-3,4,5-triol]
1.65	OC[C@H]1O[C@@H](c2cc(Cc3ccc4c(c3)OCCO4)c(Cl)c3c2OCCC3)[C@H](O)[C@@H](O)[C@@H]1O [Example E044, (2S,3R,4R,5S,6R)-2-(5-Chloro-6-((2,3-dihydrobenzo[b][1,4]dioxin-6-yl)methyl)chroman-8-yl)-6-(hydroxymethyl)tetrahydro-2H-pyran-3,4,5-triol]
4.66	COc1ccc(Cc2cc([C@@H]3O[C@H](CO)[C@@H](O)[C@H](O)[C@H]3O)c3c(c2Cl)C(C)(C)CO3)cc1 [Example E218, (2S,3R,4R,5S,6R)-2-(4-Chloro-5-(4-methoxybenzyl)-3,3-dimethyl-2,3-dihydrobenzofuran-7-yl)-6-(hydroxymethyl)tetrahydro-2H-pyran-3,4,5-triol]
0.651	OC[C@H]1O[C@@H](c2cc(Cc3ccc(C4CC4)cc3)c(Cl)c3c2OCCO3)[C@H](O)[C@@H](O)[C@@H]1O [Example E163, (2S,3R,4R,5S,6R)-2-(8-Chloro-7-(4-cyclopropylbenzyl)-2,3-dihydrobenzo[b][1,4]dioxin-5-yl)-6-(hydroxymethyl)tetrahydro-2H-pyran-3,4,5-triol]
3.45	CCOc1ccc(Cc2cc([C@@H]3O[C@H](S(C)(=O)=O)[C@@H](O)[C@H](O)[C@H]3O)c3c(c2Cl)CC(C)O3)cc1 (stereo partly drawn) [Example E146, (2S,3R,4R,5S,6R)-2-(4-Chloro-5-(4-ethoxybenzyl)-2-methyl-2,3-dihydrobenzofuran-7-yl)-6-(methylsulfonyl)tetrahydro-2H-pyran-3,4,5-triol]
1.16	OC[C@H]1O[C@@H](c2cc(Cc3ccc(C4CCCC4)cc3)c(Cl)c3c2CCO3)[C@H](O)[C@@H](O)[C@@H]1O [Example E233, (2S,3R,4R,5S,6R)-2-(7-Chloro-6-(4-cyclopentylbenzyl)-2,3-dihydrobenzofuran-4-yl)-6-(hydroxymethyl)-tetrahydro-2H-pyran-3,4,5-triol]
0.96	CC(=O)c1ccc(Cc2cc([C@@H]3O[C@H](CO)[C@@H](O)[C@H](O)[C@H]3O)c3c(c2Cl)OCC3)cc1 [Example E168, 1-(4-((7-Chloro-4-((2S,3R,4R,5S,6R)-3,4,5-trihydroxy-6-(hydroxymethyl)tetrahydro-2H-pyran-2-yl)-2,3-dihydrobenzofuran-6-yl)methyl)phenyl)ethanone]
16.8	COC1O[C@@H](c2ccc(Cl)c(Cc3ccc4c(c3)OCCO4)c2)[C@H](O)[C@@H](O)[C@@H]1O (stereo partly drawn) [Example E093, (2S,3R,4R,5S)-2-(4-Chloro-3-((2,3-dihydrobenzo[b][1,4]dioxin-6-yl)methyl)phenyl)-6-methoxytetrahydro-2H-pyran-3,4,5-triol]
